Laboratory results from patent US20220356163A1, “SMALL MOLECULE INHIBITORS OF Id PROTEINS” (MEMORIAL SLOAN KETTERING CANCER CENTER, priority 2019, published 2022).

Tests used:
[1] = Concentration of AGX51 in the eyes after i.p. dosing; type: in vivo, mouse; settings: 30 mg/kg i.p.
Procedure: Pharmacokinetic analyses. To determine the pharmacokinetic parameters of AGX51, eight-week old male Balb/c mice (Taconic farms) were dosed once by i.p. injection with 30 mg/kg, 50 mg/kg or 100 mg/kg AGX51 prepared in 70% DMSO (n=3 mice per group). Another set of three mice was dosed with 100 mg/kg AGX51 prepared in 100% DMSO. Blood was collected at 30 minutes, 1 hour, 3 hours, 6 hours and 24 hours post AGX51 administration and plasma analyzed via LC-MS as per the protocol previously validated in the MSKCC Antitumor Assessment Core Facility. Following blood collection, the mice were sacrificed via CO2 asphyxiation and the eyes from the 30 mg/kg treatment group were collected and flash frozen for analysis. Data obtained from LC-MS was analyzed via WinNonLin software (version 8.1) for pharmacokinetic parameters.
The concentration of AGX51 was thus measured in the eyes of mice dosed i.p. with 30 mg/kg AGX51 by mass spectrometry over 24 hours. […] The amount of AGX51 reaching the eye was well below the amount required by intraocular injection to show efficacy, which could be due to incomplete recovery from the extraction of dissected eyes or that effective dose ranges vary considerably with delivery route.

MDA-MB-157 = assay: MTT assay, MDA-MB-157; type: cell-based; settings: Homo sapiens, 24 h, MDA-MB-157, TNBC cell line, read-out: IC50 value after 24 hours of treatment
Description: (§1) The 4T1 murine mammary tumor cell line and nine breast cancer cell lines representing the major breast cancer subtypes (ER+, HER2+, and TNBC) including MDA-MB-157, MDA-MB-436, MDA-MB-231, MDA-MB-453, MDA-MB-361, BT-474, SK-BR-3, MCF-7 and T47-D will be grown in RPMI or DMEM (Dulbecco's Modified Eagle Medium) media supplemented with 10% FBS (fetal bovine serum), 1% penicillin-streptomycin and 1% L-Glutamine. Patient derived xenograft cell lines BR7, BR11, and IBT will be established directly from breast cancer bone metastases specimens surgically resected from patients with informed consent. BR7 and BR11 specimens will be obtained from ER positive (HER2 negative and PR negative) metastatic breast cancer patients, while the IBT specimen will be obtained from a metastatic, triple negative breast cancer patient. Fresh tumor tissues will be quickly washed with ice cold PBS and minced into about 1-3 mm pieces in MEM medium (without FBS) using sterile razor blades. […] The cells will be treated with either 100 μM DMSO, AGX51, or a compound of the present technology such as AGX-A. The cell morphology and growth will be monitored daily for 1 week by microscopy for changes in morphology or cell death. […] Absorbance will then measured at 570 nm using a plate reader (Synergy 2, BioTek). […]

MDA-MB-453 = assay: MTT assay, MDA-MB-453; type: cell-based; parameters: scale not given here; settings: MDA-MB-453, HER-2 +ve cell line, 24 hours
Description: as §1

PDX-BR7 = assay: MTT assay, PDX-BR7; type: cell-based; settings: 24 h, PDX-BR7, PDX cell line, read-out: IC50 value after 24 hours of treatment
Description: as §1

colon tumors = assay: Azoxymethane (AOM) colon tumor model; type: in vivo, mouse; settings: 15 mg/kg i.p. for three weeks
Procedure: Spontaneous colon tumors will be induced by treating 30, 4-week old male A/J mice (Jackson Laboratory) with AOM (10 mg/kg; Sigma Aldrich) once a week by i.p. injection for 6 weeks. Mice will be maintained on AIN-93G purified diet (Research Diets) for the duration of the experiment. After a three-week treatment break mice will be treated i.p. for three weeks with DMSO, AGX51 (15 mg/kg) or a compound of the present technology (e.g., AGX-A; 15 mg/kg). Following the last injection, the mice will be euthanized and colon tumors will be formalin fixed to assess tumor burden. Tumor numbers and size will be determined in whole mounts of the tissues following methylene blue staining. For aid in future comparison with a compound of the present technology, the study was initially performed with DMSO and AGX51 where exemplary data of effects of AGX51 on sporadic tumor is shown FIGS. 35A-35D.

DU145 cells = assay: Prostate cancer cell morphology, growth and death; type: cell-based
Procedure: Prostate cancer cell lines DU145 and PC3 (in 10% BCS) will be cultured in Ham's F12 (Gibco, Carlsbad, Calif.) medium containing 10% BCS (Hyclone, Logan, Utah) and appropriate antibiotics (pen/strep, fungizaone, and gentamycin (Invitrogen Inc., Carlsbad, Calif.). All cells will be cultured at 37° C. in a fully humidified atmosphere containing 5% CO2.
At 50% confluence, the cells will be treated with either 100 μM DMSO, AGX51, or a compound of the present technology (such as AGX-A). The cell morphology and growth will be monitored daily for 1 week by microscopy for changes in morphology or cell death. Apoptosis will be determined by measuring caspase 3 and caspase 7 activities using the Caspase-Glo 3/7 Assay system from Promega (Madison, Wis.).

Compound: CCC(=O)N(CCC(c1ccc2c(c1)OCO2)c1ccccc1OC)Cc1ccccc1 (racemic) [AGX51, N-(3-(benzo[d][1,3]dioxol-5-yl)-3-(2-methoxyphenyl)propyl)-N-benzylpropionamide]
- half-life in the eye [1]: 3.7 h
- maximum concentration in the eye ([1]; after 30 minutes): ~4 ng/eye
- IC50 (MDA-MB-157): 22.3 µM
- percentage at 60 μM (IC50 NA) (MDA-MB-453): NA (60 μM = 57%)
- IC50 (PDX-BR7): 10.9 µM
- number of colon tumors (colon tumors; p=0.008): significant decrease in the number of colon tumors
- colon tumor size vs DMSO group (colon tumors; significant for tumors >3 mm (p=0.004)): smaller than those in the DMSO group
- DU145 cell death (DU145 cells; after six days): lead to cell death
- effect on DU145 cells (DU145 cells; after three days): pronounced effect on DU145 cells
